Laboratory results reported in article PMC9413440, “An Iterative Approach Guides Discovery of the FabI Inhibitor Fabimycin, a Late-Stage Antibiotic Candidate with In Vivo Efficacy against Drug-Resistant Gram-Negative Infections” (ACS Central Science, 2022).
Where two headings read alike, the source gives them in different places.

How the values were obtained:
[1] = system: A. baumannii AR-0088; assay: Dose-ranging and efficacy, neutropenic thigh infection; type: in vivo, mouse; details: neutropenic BALB/c mice, burden at 26 h
Excerpt: Neutropenic thigh infection model
Acclimated CD-1 mice (see above) were rendered neutropenic prior to the experiment via cyclophosphamide treatment. […]
Dose-ranging and efficacy of fabimycin
The protocol to assess fabimycin’s efficacy in A. baumannii-infected mice (strain: AR-0088) was approved by the IACUC at Pharmacology Discovery Services, Taiwan, Ltd. (protocol number: IM003-01282019). In this study, neutropenic female BALB/c mice 7-8 weeks in age from BioLASCO Taiwan (AAALAC-certified Charles River Licensee) weighing 18 ± 2 grams were used. The mice were rendered neutropenic and inoculated in the same method as used for the pharmacokinetic study. Fabimycin was formulated in 17% Cremophor EL/3% SBE-β-CD and IV administered. Colistin was formulated in 0.9% NaCl and subcutaneously (SC) administered.
5 or 30 minutes after dosing with respect to IV and SC route to detect acute toxicity, which was recorded and reported, […]
Animals were euthanized using compressed CO2 gas in a CO2 gas chamber. […] Bacterial burden in the tissue homogenates was determined by performing 10-fold serial dilutions and plating 0.1 mL of each to nutrient agar plates. Colonies were counted after 18 - 24 h incubation. The colony-forming unit value per tissue (CFU/thigh) was calculated. […]
IM011-12282020). […] Tissues were collected and pathogen burden evaluated by dilution plating technique on nutrient agar plates.

[2] = system: panel of 10 clinical isolates (two E. coli, four K. pneumoniae, four A. baumannii); assay: MIC, Gram-negative clinical isolate challenge panel; type: cell-based; details: Gram-negative clinical isolates; fabimycin relative to (R)-7
[3] = type: in vitro ADME
Procedure: Forward 5’-GGG-GCC-AGC-GTT-TCT-TTT-TC-3‘ Parker, 20203
Reverse 5’-AAA-CAT-GGA-GAC-GGT-GCT-GG
Forward 5’-GTG-AGA-TCG-GCA-TGA-CAC-AA-3’ Lin, 20179
Reverse 5’-CTG-AAG-TCC-GCT-ACC-GTT-AT-3’
Compound stability in mammalian plasma
Candidate drugs were incubated with plasma and parent drug levels were monitored at various time points (generally t=0, 10, 20, 30, and 60 minutes) to determine the drug’s half-life in the presence of the chosen system. Each drug is tested in duplicate. Compounds were diluted from 10 mM DMSO stocks to 1 µM in a 100 mM pH 7.4 phosphate buffer and incubated at 37 °C with 0.5 mg/mL of human, rat, or mouse plasma (BioreclamationIVT, Baltimore, MD). Time points were collected at 0 min (after addition of drug), 15 min, 30 min, 60 min, and 120 min following quenching with an equal volume of acetonitrile. The supernatant was collected after centrifugation, and the sample analyzed by LC-MS where the percentage of compound remaining is plotted vs time to determine the drug’s half-life.
Compound plasma protein binding
Candidate drugs were incubated with plasma and parent drug levels are monitored after 4 hours to determine the drug’s free concentration in the presence of the plasma proteins. The standard assay involves equilibrium dialysis, in which compound is allowed to equilibrate between a protein-containing compartment from a protein-free compartment. Each

Structure (SMILES): Cc1c(CN(C)C(=O)/C=C/c2cnc3c(c2)CC[C@H](N)C(=O)N3)oc2ccccc12 [fabimycin]
- reduction of bacterial burden ([1]; 75 mg/kg IV four times a day, NDM-1 containing strain): ~2 log(CFU/thigh)
- dose at which significant dose-dependent responses begin ([1]; IV four times a day, doses 1.25–75 mg/kg): 30 mg/kg
- difference in MIC activity between the two enantiomers [2]: 64–128 fold
- stability in plasma ([3]; human): excellent stability
- stability in plasma ([3]; mouse): considerable instability
- stability in plasma ([3]; rat): excellent stability
